Drawing on PubChem BioAssay (NCI), this text covers TGI and GI50 for 13 compounds.

What all share (experiment): inhibition of tumour cell growth, NCI panel, 48 h
For experiment [1], the system named is CCRF-CEM leukemia.
Experiment [2] deals with KM12 colon.
The subject of experiment [3] is CAKI-1 renal.
In experiment [4] the test system is NCI-H460 lung.
Experiment [5] has as its system IGROV1 ovarian.
In experiment [6] the test system is SR leukemia.
Experiment [7] deals with HL-60(TB) leukemia.
For experiment [8], the system named is HT29 colon.
The subject of experiment [9] is SNB-75 CNS.
Experiment [10] concerns NCI/ADR-RES ovarian.

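Test compounds were applied to cells in 96-well plates for 48 hours at 5 doses. GI50 marks 50% less growth. Definition used: TGI = concentration required for complete inhibition of growth.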 Bounds are passed on as bounds.

As to `O=C(/C=N/O)Nc1cccc(Cl)c1I`, the TGI in experiment [1], in experiment [2], in [3], in experiment [4], in experiment [5] and in [6] was > 100 µM throughout. Also, the values for the TGI in experiment [7], in [8] and in [9] were > 100 µM, > 100 µM and 43.4 µM, respectively.

`COc1ccc(/C(C#N)=C2/O/C(=N/N)C(c3ccc(OC)c(OC)c3)C2=O)cc1OC` (stereo not given): the TGI in experiment [1], in [2], in [3], in [5], in experiment [6] and in [7] was > 100 µM each time. The TGI in experiment [8] and in [9] was > 100 µM throughout.

Regarding `C=C1CCC2C(C)(CO)C(O)CCC2(C)C1C/C=C1\C(=O)OCC1O` (stereo not given), the TGI was > 100 µM in experiment [1]; 27.2 µM in [2]; 59.2 µM in [4]; 57.4 µM in [5]; 42.5 µM in [6]; > 100 µM in [7]. The TGI in [8] was 25.8 µM; in [9], 30.5 µM; in experiment [10] it was > 100 µM.

With `CCOc1ccc(N=Nc2c(-c3ccccc3)nn(C(=O)CC(=O)Nc3ccccc3Cl)c2-c2ccccc2)cc1`, the TGI in experiment [1], in experiment [2], in experiment [3], in [4], in experiment [5] and in [6] was > 100 µM in each case. Besides, the TGI was > 100 µM in [7], > 100 µM in [8] and 90.6 µM in experiment [9].

Consider `COc1cc2c(c(OC)c1OC)-c1ccc(SC)c(=O)cc1C(CC(=O)Oc1ccccc1F)C2` (stereo not given), for which the TGI in [1] is > 7.5 µM; in experiment [2], 0.0493 µM; in experiment [3], > 7.5 µM; in experiment [4] it was > 7.5 µM; in experiment [5], > 7.5 µM; in experiment [6] it was > 7.5 µM. Further, the TGI in experiment [7] was 1.37 µM; in experiment [8], 0.0324 µM; in experiment [9] it was > 7.5 µM.

On to `Nc1cccc(C(=O)/C=C/c2ccccc2O)c1`, for which the TGI in [1], in [2], in [3], in [4], in experiment [5] and in [6] was > 100 µM each time. The TGI was 46.9 µM in [7], > 100 µM in experiment [8] and > 100 µM in experiment [9].

With `CCCCCCC1CCCCN1C(c1ccccc1)C(O)c1ccccc1` (stereo not given), the GI50 is 6.07 µM in experiment [2]; 3.72 µM in experiment [3]; 3.92 µM in experiment [4]; 8.62 µM in experiment [5]; 2.94 µM in [6]; 3.01 µM in experiment [7]. The GI50 was 3.09 µM in experiment [8], 11.4 µM in [9] and 10.1 µM in experiment [10]. For the same compound, the TGI in experiment [2] came out at 19.4 µM; in [3], 14.6 µM; in experiment [4], 13.6 µM; in [5], 22 µM; in experiment [6] it was 8.54 µM; in experiment [7], 7.01 µM. Moreover, the TGI in experiment [8] was found to be 12.2 µM; in [9], 23.7 µM; in experiment [10] it was 22.9 µM.

`COc1cc(/C=C/C(=O)/C=C/c2ccc(-n3ccnc3)cc2)ccc1O`: the GI50 is 2.68 µM in experiment [1]; 2.11 µM in [2]; 3.24 µM in [3]; 14.1 µM in experiment [4]; 1.67 µM in experiment [6]; 3.29 µM in experiment [7]. Further, the results for the GI50 in experiment [8], in experiment [9] and in experiment [10] were 1.97 µM, 9.96 µM and 15.9 µM, respectively. In addition, the TGI came to 12.7 µM in experiment [1]; 4.59 µM in experiment [2]; 11.5 µM in [3]; 34.9 µM in experiment [4]; 9.24 µM in [6]; 22.4 µM in experiment [7]. The TGI is 3.88 µM in experiment [8], > 100 µM in experiment [9] and > 100 µM in experiment [10].

Turning to `NC(=O)N1N=C2c3ccccc3OC[C@H]2[C@@H]1c1ccccc1`, the TGI is > 100 µM in experiment [1]; 16.6 µM in experiment [2]; > 100 µM in [3]; 60.2 µM in experiment [4]; > 100 µM in [5]; 56 µM in [6]. In addition, the TGI in [7] is 61.7 µM; in experiment [8] it was 67.6 µM; in experiment [9], > 91.7 µM.

Turning to `COc1ccc(N=C2C(=O)Nc3ccc(Br)cc32)cc1`, the TGI in experiment [1] is 37.2 µM; in experiment [2], 29.4 µM; in experiment [3] it was 60.6 µM; in experiment [4] it was 78.4 µM; in experiment [6], 28.6 µM; in experiment [7], 42.7 µM. Also, the TGI in [8] was 58.1 µM; in experiment [10] it was 87.9 µM.

As to `Cc1cc(N(CCC#N)CCC#N)ccc1/C=C1N=C(/C=C\c2ccccc2)N(c2ccc(C(=O)O)cc2)C\1=O`, the TGI in [1], in experiment [2], in experiment [3], in experiment [4], in experiment [5] and in [6] was > 100 µM each time. Moreover, the TGI in experiment [7], in [8] and in experiment [9] was > 100 µM throughout.

In the case of `CC(C)(C)OC(=O)CC(S(=O)(=O)c1ccccc1)S(=O)(=O)c1ccccc1`, the GI50 in experiment [1] was 1.64 µM; in experiment [3], 1.66 µM; in experiment [4], 19.5 µM; in experiment [5], 18.5 µM; in [6], 3.1 µM; in [7] it was 3.19 µM. For the same compound, the GI50 was 14.2 µM in experiment [9] and 17.4 µM in experiment [10]. For the same compound, the TGI was 3.83 µM in experiment [1]; 3.52 µM in experiment [3]; 39.4 µM in experiment [4]; 38.5 µM in [5]; 12.1 µM in experiment [6]; 12.2 µM in [7]. The TGI in experiment [9] worked out at 31.1 µM; in experiment [10], 37.8 µM.

As to `COc1ccc(S(=O)(=O)NNS(C)(=O)=O)cc1OC`, the TGI in experiment [1], in experiment [2], in [3], in experiment [4], in experiment [5] and in experiment [6] was > 100 µM in each case. The TGI in [7], in [8] and in [9] was > 100 µM throughout.
